How the values were obtained:
Hepatitis C virus [1] = assay: Antiviral activity against HCV infected in human Huh7 cells assessed as inhibition of viral replication by measuring EGFP autofluorescence at 50 uM by CCK8 assay relative to control; format: functional, Hepacivirus hominis; details: Huh-7
Hepatitis C virus [2] = assay: Antiviral activity against HCV infected in human Huh7 cells assessed as inhibition of viral replication by measuring EGFP autofluorescence by CCK8 assay; format: functional, organism-based, Hepacivirus hominis; details: Huh-7
[3] = Selectivity index, ratio of CC50 for human HuH7 cells to EC50 for HCV; design: species or system Huh-7
[4] = Cytotoxicity against human HuH7 cells; format: cell-based, Huh-7
Hepatitis C virus [5] = assay: Inhibition of NS5A protein synthesis in HCV by Western blot analysis; format: functional, organism-based; details: Hepacivirus hominis
Hepatitis C virus [6] = assay: Inhibition of viral genome mRNA expression in HCV by RT-PCR analysis; format: functional, organism-based; details: Hepacivirus hominis
Hepatitis C virus [7] = assay: Antiviral activity against HCV infected in human Huh7 cells assessed as inhibition of viral replication by measuring EGFP autofluorescence at 2 uM by CCK8 assay relative to control; format: functional, Hepacivirus hominis; details: Huh-7

Structure (SMILES) | inhibition at 50 µM (Hepatitis C virus [1]) [%] | further results
COc1ccc(C(=O)CC(=O)c2nnn[nH]2)cc1 | 28.7 | 
O=C(CC(=O)c1nnc[nH]1)c1cccc(OCc2ccc(F)cc2)c1 | 43.4 | 
O=C(CC(=O)c1ccccc1OCc1ccc(F)cc1)c1nnc[nH]1 | 55 | 
O=C(CC(=O)c1ccccc1OCc1ccccc1)c1nnc[nH]1 | 34.4 | 
O=C(CC(=O)c1nnn[nH]1)c1ccc(OCc2ccc(Cl)cc2)cc1 | 64.9 | 
O=C(CC(=O)c1ccccc1OCc1ccc(Cl)cc1)c1nnn[nH]1 | 36.2 | 
O=C(CC(=O)c1nnc[nH]1)c1ccccc1 | 24.8 | 
O=C(CC(=O)c1nnc[nH]1)c1ccc(OCc2ccc(Cl)cc2)cc1 | 70.2 | EC50 (Hepatitis C virus [2]): 6.5 µM; Ratio CC50/EC50 [3]: >77; CC50 [4]: > 500 µM
O=C(CC(=O)c1nnn[nH]1)c1ccccc1 | -1.3 | 
O=C(CC(=O)c1nnn[nH]1)c1ccc(OCc2ccccc2)cc1 | 54.9 | 
O=C(CC(=O)c1nnn[nH]1)c1cccc(OCc2ccccc2)c1 | 11.1 | 
O=C(CC(=O)c1nnc[nH]1)c1cccc(OCc2ccc(Cl)cc2)c1 | 29.2 | 
O=C(CC(=O)c1nnn[nH]1)c1ccc(OCc2ccc(F)cc2)cc1 | 10.7 | 
O=C(CC(=O)c1ccccc1OCc1ccccc1)c1nnn[nH]1 | 67.6 | EC50 (Hepatitis C virus [2]): 9.2 µM; Ratio CC50/EC50 [3]: >54; CC50 [4]: > 500 µM
O=C(CC(=O)c1nnn[nH]1)c1cccc(OCc2ccc(F)cc2)c1 | 62.7 | 
O=C(CC(=O)c1ccco1)c1nnc[nH]1 | 14.5 | 
O=C(CC(=O)c1nnc[nH]1)c1ccc(OCc2ccc(F)cc2)cc1 | 69.7 | EC50 (Hepatitis C virus [2]): 3.9 µM; Ratio CC50/EC50 [3]: >128; inhibition (Hepatitis C virus [5]): Dose-dependent effect; CC50 [4]: > 500 µM; inhibition (Hepatitis C virus [6]): Dose-dependent effect
CC(C)C(=O)OC[C@H]1O[C@@H](n2ccc(N)nc2=O)[C@](C)(F)[C@@H]1OC(=O)C(C)C [MERICITABINE] |  | inhibition at 2 µM (Hepatitis C virus [7]): 75.3%
O=C(CC(=O)c1ccccc1OCc1ccc(F)cc1)c1nnn[nH]1 | 6.8 | 
O=C(CC(=O)c1nnc[nH]1)c1ccc(OCc2ccccc2)cc1 | 12.1 | 
O=C(/C=C(\O)c1nnn[nH]1)c1c[nH]c2ccc(Cl)cc12 | 24.3 | 
O=C(CC(=O)c1ccccc1OCc1ccc(Cl)cc1)c1nnc[nH]1 | 53.8 | 
O=C(CC(=O)c1nnn[nH]1)c1cccc(OCc2ccc(Cl)cc2)c1 | 43.6 | 
O=C(/C=C(\O)c1nc[nH]n1)c1ccc(Cc2ccc(F)cc2)o1 [S-1360] | 22.4 | 
O=C(CC(=O)c1nnc[nH]1)c1cccc(OCc2ccccc2)c1 | 48.2 | 
O=C(CC(=O)c1nnn[nH]1)c1ccc([N+](=O)[O-])cc1 | 14.7 | 
O=C(CC(=O)c1ccco1)c1nnn[nH]1 | 0.9 | 

Reference: ChEMBL document CHEMBL2406963, “Tetrazole and triazole as bioisosteres of carboxylic acid: discovery of diketo tetrazoles and diketo triazoles as anti-HCV agents” (Bioorg Med Chem Lett, 2013)
